Assay results reported in PubChem BioAssay (NCI).
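In this assay, cells in 96-well plates receive the compound at five concentrations for 48 hours. Endpoints are linearly interpolated between the surrounding concentrations. GI50 = concentration required for 50% inhibition of growth. TGI marks complete inhibition of growth.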

Experiments:
Test in all cases: NCI tumour cell line growth inhibition, 48 h
ACHN renal = tested on: ACHN renal
SW-620 colon = tested on: SW-620 colon
HCT-116 colon = tested on: HCT-116 colon
IGROV1 ovarian = tested on: IGROV1 ovarian
CAKI-1 renal = tested on: CAKI-1 renal
NCI-H23 lung = tested on: NCI-H23 lung
MALME-3M melanoma = tested on: MALME-3M melanoma
CCRF-CEM leukemia = tested on: CCRF-CEM leukemia
HOP-92 NSCLC = tested on: HOP-92 NSCLC
HL-60(TB) leukemia = tested on: HL-60(TB) leukemia
NCI-H522 lung = tested on: NCI-H522 lung
RPMI-8226 leukemia = tested on: RPMI-8226 leukemia
SK-OV-3 ovarian = tested on: SK-OV-3 ovarian
SF-539 CNS = tested on: SF-539 CNS
SNB-75 CNS = tested on: SNB-75 CNS
HT29 colon = tested on: HT29 colon
SNB-19 CNS = tested on: SNB-19 CNS
A549 NSCLC = tested on: A549 NSCLC
UACC-257 melanoma = tested on: UACC-257 melanoma
SN12C renal = tested on: SN12C renal
COLO 205 colon = tested on: COLO 205 colon
LOX IMVI melanoma = tested on: LOX IMVI melanoma
HCT-15 colon = tested on: HCT-15 colon
SK-MEL-28 melanoma = tested on: SK-MEL-28 melanoma
MOLT-4 leukemia = tested on: MOLT-4 leukemia
PC-3 prostate = tested on: PC-3 prostate
K-562 leukemia = tested on: K-562 leukemia
BT-549 breast = tested on: BT-549 breast
SF-268 CNS = tested on: SF-268 CNS
SK-MEL-2 melanoma = tested on: SK-MEL-2 melanoma
UO-31 renal = tested on: UO-31 renal
UACC-62 melanoma = tested on: UACC-62 melanoma
HOP-62 NSCLC = tested on: HOP-62 NSCLC
NCI/ADR-RES ovarian = tested on: NCI/ADR-RES ovarian
NCI-H226 lung = tested on: NCI-H226 lung
HS 578T breast = tested on: HS 578T breast
NCI-H460 lung = tested on: NCI-H460 lung
TK-10 renal = tested on: TK-10 renal
KM12 colon = tested on: KM12 colon
M14 melanoma = tested on: M14 melanoma
T-47D breast = tested on: T-47D breast
MCF7 breast = tested on: MCF7 breast
HCC-2998 colon = tested on: HCC-2998 colon
OVCAR-8 ovarian = tested on: OVCAR-8 ovarian
U251 CNS = tested on: U251 CNS
SK-MEL-5 melanoma = tested on: SK-MEL-5 melanoma
OVCAR-3 ovarian = tested on: OVCAR-3 ovarian
MDA-MB-231 breast = tested on: MDA-MB-231 breast
OVCAR-4 ovarian = tested on: OVCAR-4 ovarian
DU-145 prostate = tested on: DU-145 prostate
SR leukemia = tested on: SR leukemia
OVCAR-5 ovarian = tested on: OVCAR-5 ovarian
SF-295 CNS = tested on: SF-295 CNS
MDA-MB-435 = tested on: MDA-MB-435
A498 renal = tested on: A498 renal
RXF 393 renal = tested on: RXF 393 renal
786-0 renal = tested on: 786-0 renal

With `CC(=O)Nc1ccc2c(c1)C(c1ccccc1Cl)=Nc1c(n[nH]c1C)N2` the GI50 (ACHN renal) was 6.19 µM, the TGI (ACHN renal) was greater than 25 µM and the GI50 (SW-620 colon) was 1.55 µM. It also gave a TGI (SW-620 colon) greater than 25 µM, a GI50 (HCT-116 colon) of 2.49 µM and a TGI (HCT-116 colon) greater than 25 µM. For the same molecule, the GI50 (IGROV1 ovarian) was 5.66 µM, the TGI (IGROV1 ovarian) was greater than 24 µM and the GI50 (CAKI-1 renal) was 2.84 µM. For the same molecule, the TGI (CAKI-1 renal) was greater than 22.5 µM, the GI50 (NCI-H23 lung) was 12.4 µM and the TGI (NCI-H23 lung) was greater than 25 µM. The GI50 (MALME-3M melanoma) was greater than 25 µM, the TGI (MALME-3M melanoma) was greater than 25 µM and the GI50 (CCRF-CEM leukemia) was 12.2 µM. It also gave a TGI (CCRF-CEM leukemia) greater than 25 µM, a GI50 (HOP-92 NSCLC) of 1.41 µM and a TGI (HOP-92 NSCLC) of 16.4 µM. The GI50 (HL-60(TB) leukemia) was 14.8 µM, the TGI (HL-60(TB) leukemia) was greater than 25 µM and the GI50 (NCI-H522 lung) was greater than 15.9 µM. For the same molecule, the TGI (NCI-H522 lung) was greater than 25 µM, the GI50 (RPMI-8226 leukemia) was greater than 25 µM and the TGI (RPMI-8226 leukemia) was greater than 25 µM. It also gave a GI50 (SK-OV-3 ovarian) greater than 25 µM, a TGI (SK-OV-3 ovarian) greater than 25 µM and a GI50 (SF-539 CNS) of 0.999 µM. It also gave a TGI (SF-539 CNS) of 12.5 µM, a GI50 (SNB-75 CNS) of 0.732 µM and a TGI (SNB-75 CNS) of 6.24 µM. The GI50 (HT29 colon) was 4.45 µM, the TGI (HT29 colon) was greater than 25 µM and the GI50 (SNB-19 CNS) was 6.36 µM. The TGI (SNB-19 CNS) was greater than 25 µM, the GI50 (A549 NSCLC) was 4.46 µM and the TGI (A549 NSCLC) was greater than 25 µM. It also gave a GI50 (UACC-257 melanoma) greater than 25 µM, a TGI (UACC-257 melanoma) greater than 25 µM and a GI50 (SN12C renal) of 5.05 µM. It also gave a TGI (SN12C renal) greater than 25 µM, a GI50 (COLO 205 colon) of 1.53 µM and a TGI (COLO 205 colon) greater than 22 µM. The GI50 (LOX IMVI melanoma) was 2.75 µM, the TGI (LOX IMVI melanoma) was greater than 25 µM and the GI50 (HCT-15 colon) was 10.8 µM. The TGI (HCT-15 colon) was greater than 25 µM, the GI50 (SK-MEL-28 melanoma) was greater than 23.5 µM and the TGI (SK-MEL-28 melanoma) was greater than 25 µM. For the same molecule, the GI50 (MOLT-4 leukemia) was 9.75 µM, the TGI (MOLT-4 leukemia) was greater than 25 µM and the GI50 (PC-3 prostate) was greater than 25 µM. For the same molecule, the TGI (PC-3 prostate) was greater than 25 µM, the GI50 (K-562 leukemia) was 17.3 µM and the TGI (K-562 leukemia) was greater than 25 µM. It also gave a GI50 (BT-549 breast) of 6.58 µM, a TGI (BT-549 breast) greater than 25 µM and a GI50 (SF-268 CNS) of 3.01 µM. It also gave a TGI (SF-268 CNS) greater than 21.4 µM, a GI50 (SK-MEL-2 melanoma) greater than 25 µM and a TGI (SK-MEL-2 melanoma) greater than 25 µM. The GI50 (UO-31 renal) was 5.63 µM, the TGI (UO-31 renal) was greater than 22.5 µM and the GI50 (UACC-62 melanoma) was 6.07 µM. The TGI (UACC-62 melanoma) was greater than 25 µM, the GI50 (HOP-62 NSCLC) was 5.74 µM and the TGI (HOP-62 NSCLC) was greater than 25 µM. For the same molecule, the GI50 (NCI/ADR-RES ovarian) was greater than 25 µM, the TGI (NCI/ADR-RES ovarian) was greater than 25 µM and the GI50 (NCI-H226 lung) was 0.57 µM. For the same molecule, the TGI (NCI-H226 lung) was greater than 17.7 µM, the GI50 (HS 578T breast) was 0.928 µM and the TGI (HS 578T breast) was greater than 11.7 µM. It also gave a GI50 (NCI-H460 lung) of 1.85 µM, a TGI (NCI-H460 lung) greater than 25 µM and a GI50 (TK-10 renal) of 4.13 µM. The TGI (TK-10 renal) was greater than 25 µM, the GI50 (KM12 colon) was 0.253 µM and the TGI (KM12 colon) was greater than 25 µM. It also gave a GI50 (M14 melanoma) greater than 25 µM, a TGI (M14 melanoma) greater than 25 µM and a GI50 (T-47D breast) of 8.38 µM. It also gave a TGI (T-47D breast) greater than 23.6 µM, a GI50 (MCF7 breast) of 2.26 µM and a TGI (MCF7 breast) greater than 25 µM. It also gave a GI50 (HCC-2998 colon) of 16.7 µM, a TGI (HCC-2998 colon) greater than 25 µM and a GI50 (OVCAR-8 ovarian) of 13.4 µM. It also gave a TGI (OVCAR-8 ovarian) greater than 25 µM, a GI50 (U251 CNS) of 1.1 µM and a TGI (U251 CNS) greater than 25 µM. It also gave a GI50 (SK-MEL-5 melanoma) of 17.6 µM, a TGI (SK-MEL-5 melanoma) greater than 25 µM and a GI50 (OVCAR-3 ovarian) of 9.06 µM. The TGI (OVCAR-3 ovarian) was greater than 25 µM, the GI50 (MDA-MB-231 breast) was greater than 17.1 µM and the TGI (MDA-MB-231 breast) was greater than 25 µM. For the same molecule, the GI50 (OVCAR-4 ovarian) was greater than 15.9 µM, the TGI (OVCAR-4 ovarian) was greater than 25 µM and the GI50 (DU-145 prostate) was greater than 22.8 µM. For the same molecule, the TGI (DU-145 prostate) was greater than 25 µM, the GI50 (SR leukemia) was 1.16 µM and the TGI (SR leukemia) was greater than 25 µM. It also gave a GI50 (OVCAR-5 ovarian) of 24.6 µM, a TGI (OVCAR-5 ovarian) greater than 25 µM and a GI50 (SF-295 CNS) of 8.22 µM. The TGI (SF-295 CNS) was greater than 25 µM, the GI50 (MDA-MB-435) was greater than 20 µM and the TGI (MDA-MB-435) was greater than 25 µM. It also gave a GI50 (A498 renal) of 0.746 µM, a TGI (A498 renal) of 6.99 µM and a GI50 (RXF 393 renal) of 1.02 µM. The TGI (RXF 393 renal) was 9.59 µM, the GI50 (786-0 renal) was 7.79 µM and the TGI (786-0 renal) was greater than 25 µM.
